Measurements reported in PMC11851776, “Structural Basis for the Catalysis and Substrate Specificity of a LarA Racemase with a Broad Substrate Spectrum” (ACS Catalysis, 2025).
One block for each compound: values may come before it.

Columns and labels:
LarAIp [1] = target: T1, LarAIp (Isosphaera pallida, UniProt E8QWZ4); test: X-ray crystal structure, […] Å; assay type: binding; details: ligand exchange with ~3 mM D/L-2HB at 55 °C 15 min, then 4 °C; active site
T1 construct: gene Isop_3476; full length, C-terminal Strep-II tag, co-expressed with LarB, LarC and LarE in Lactococcus lactis NZ3900 (structures); apoprotein from E. coli (pBADHisA) plus in vitro-synthesized NPN for substrate assays; 47403 Da after loss of Met1; monomer
T1 sequence (E8QWZ4 entry or part of it): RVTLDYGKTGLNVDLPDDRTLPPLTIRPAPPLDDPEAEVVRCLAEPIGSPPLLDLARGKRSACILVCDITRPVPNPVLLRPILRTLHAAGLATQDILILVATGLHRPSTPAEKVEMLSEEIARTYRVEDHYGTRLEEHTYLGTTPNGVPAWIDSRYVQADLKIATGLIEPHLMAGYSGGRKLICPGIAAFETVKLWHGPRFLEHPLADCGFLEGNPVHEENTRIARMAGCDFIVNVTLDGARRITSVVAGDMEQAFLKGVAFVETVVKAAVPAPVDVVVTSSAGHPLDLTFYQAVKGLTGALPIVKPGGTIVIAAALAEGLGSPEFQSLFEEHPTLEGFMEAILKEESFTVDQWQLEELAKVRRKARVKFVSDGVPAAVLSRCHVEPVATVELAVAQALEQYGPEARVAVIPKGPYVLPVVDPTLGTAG

LarAIp [2] = target: T1, LarAIp; test: X-ray crystal structure, […] Å; assay type: binding; details: ligand exchange at ~3 mM, 55 °C 15 min, then 4 °C; active site
LarAIp [3] = target: T1, LarAIp; test: X-ray crystal structure, […] Å; assay type: binding; details: naturally bound in enzyme as purified; active site with NPN tethered to Lys183
LarAIp [4] = target: T1, LarAIp; test: competitive-substrate racemization assay, capillary electrophoresis; assay type: biochemical; details: turnover only (relative kcat/KM); 100 mM Tris-HCl pH 8.0, 30 °C, 1 μM NPN
LarAIp [5] = target: T1, LarAIp; test: racemization assay, D-lactate formed measured by D/L-lactate kit; assay type: biochemical; details: turnover only; conversion to D-lactate also seen in crystal

- X-ray crystal structure, 1.38 Å (LarAIp [1]): 9EID (LarAIp with bound D-2HB)
Compound: CC[C@@H](O)C(=O)O [D-2HB]

- X-ray crystal structure, 1.65 Å (LarAIp [2]): 9EIF (LarAIp with bound D-2HIV)
Compound: CC(C)[C@@H](O)C(=O)O [D-2HIV]

Compound: C[C@@H](O)C(=O)O [D-lactate]
- X-ray crystal structure, 1.74 Å (LarAIp [3]): 9EIA (LarAIp with bound D-lactate as purified)

Compound: O=C(O)[C@@H](O)CO [L-glycerate]
- competitive-substrate racemization assay, capillary electrophoresis (LarAIp [4]): highest kcat/KM values for L-lactate and 2-hydroxybutyrate (2HB), followed by L-glycerate

Compound: C[C@H](O)C(=O)O [L-lactate]
- racemization assay, D-lactate formed measured by D/L-lactate kit (LarAIp [5]): confirmed the conversion of three L-α-hydroxyacids into the corresponding D-enantiomers
